Measurements reported in patent publication US6310213A, “Ethanesulfonyl-piperidine derivatives” (Hoffmann-La Roche Inc., priority 1999, dated 2001).
“And” between values parts separate entries of the source, which are not always exact repeats. Equal values may be shown once.

Legend:
[1] = target: T1, NMDA NR2B subunit containing receptors (Rattus norvegicus, UniProt P35439+Q00960); assay: 3H [R-(R*,S*)]-α-(4-Hydroxy-phenyl)-β-methyl-4-(phenyl-methyl)-1-piperidine propanol binding; design: species or system rat (Male Fullinsdorf albino rats); conditions: rat brain membranes, 5 nM radioligand, 2 hours at 4° C., pH 7.4; read-out: Inhibition of 3H [R-(R*, S*)]-α-(4-Hydroxy-phenyl)-β-methyl-4-(phenyl-methyl)-1-piperidine propanol binding IC50
T1 construct: Membranes were prepared by homogenization of the whole brain minus cerebellum and medulla oblongata; from tissue; host or cells: rat whole brain minus cerebellum and medulla oblongata, membranes
T1 sequence (Q00960 27-1482, other chains not shown): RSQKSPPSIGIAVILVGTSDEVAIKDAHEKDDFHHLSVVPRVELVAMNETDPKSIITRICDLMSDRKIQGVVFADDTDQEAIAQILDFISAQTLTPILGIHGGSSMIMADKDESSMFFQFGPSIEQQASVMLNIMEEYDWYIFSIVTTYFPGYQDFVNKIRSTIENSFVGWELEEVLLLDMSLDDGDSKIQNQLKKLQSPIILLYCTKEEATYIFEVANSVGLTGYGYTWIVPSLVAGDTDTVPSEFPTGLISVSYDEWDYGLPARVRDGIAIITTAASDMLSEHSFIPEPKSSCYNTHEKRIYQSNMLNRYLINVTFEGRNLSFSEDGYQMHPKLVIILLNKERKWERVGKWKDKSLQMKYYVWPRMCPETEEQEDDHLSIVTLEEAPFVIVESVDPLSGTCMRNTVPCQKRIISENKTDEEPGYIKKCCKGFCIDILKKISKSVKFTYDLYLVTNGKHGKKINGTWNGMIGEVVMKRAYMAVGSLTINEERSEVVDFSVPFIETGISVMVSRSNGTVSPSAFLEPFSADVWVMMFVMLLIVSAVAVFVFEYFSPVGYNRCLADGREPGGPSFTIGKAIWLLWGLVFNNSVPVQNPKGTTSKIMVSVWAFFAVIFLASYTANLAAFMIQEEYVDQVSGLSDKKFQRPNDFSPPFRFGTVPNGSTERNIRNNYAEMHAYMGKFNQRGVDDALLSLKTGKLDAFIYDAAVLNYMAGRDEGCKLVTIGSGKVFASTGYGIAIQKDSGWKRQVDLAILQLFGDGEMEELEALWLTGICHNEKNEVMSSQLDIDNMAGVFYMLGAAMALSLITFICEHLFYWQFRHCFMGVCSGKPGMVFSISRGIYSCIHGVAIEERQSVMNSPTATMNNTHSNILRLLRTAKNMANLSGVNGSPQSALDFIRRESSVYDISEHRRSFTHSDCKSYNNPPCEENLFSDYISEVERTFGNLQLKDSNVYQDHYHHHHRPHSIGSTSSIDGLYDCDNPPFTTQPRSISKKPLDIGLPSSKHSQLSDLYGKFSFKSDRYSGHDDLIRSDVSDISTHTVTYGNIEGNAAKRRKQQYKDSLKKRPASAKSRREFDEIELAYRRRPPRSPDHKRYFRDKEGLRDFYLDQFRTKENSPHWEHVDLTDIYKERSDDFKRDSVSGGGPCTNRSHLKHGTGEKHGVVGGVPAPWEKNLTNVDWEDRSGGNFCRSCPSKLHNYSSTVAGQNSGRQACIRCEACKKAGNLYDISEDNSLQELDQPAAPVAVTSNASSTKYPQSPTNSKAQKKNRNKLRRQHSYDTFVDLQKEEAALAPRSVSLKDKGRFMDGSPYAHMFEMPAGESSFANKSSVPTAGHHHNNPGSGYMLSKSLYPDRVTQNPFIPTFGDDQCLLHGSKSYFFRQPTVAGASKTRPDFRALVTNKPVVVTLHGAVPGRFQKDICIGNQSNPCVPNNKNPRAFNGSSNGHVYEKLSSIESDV
Description: ^a Inhibition of binding indicates affinity for NMDA NR2B subunit
3H [R-(R*,S*)]-α-(4-Hydroxy-phenyl)-β-methyl-4-(phenyl-methyl)-1-piperidine propanol) binding
(§1) Male Fullinsdorf albino rats weighing between 150-200 g were used. Membranes were prepared by homogenization of the whole brain minus cerebellum and medulla oblongata with a Polytron (10.000 rpm, 30 seconds), in 25 volumes of a cold Tris-HCl 50 mM, EDTA 10 mM, pH 7.1 buffer. The homogenate was centrifuged at 48.000 g for 10 minutes at 4° C. The pellet was resuspended using the Polytron in the same volume of buffer and the homogenate was incubated at 37° C. for 10 minutes. After centrifugation the pellet was homogenized in the same buffer and frozen at -100° C. for at least 16 hours but not more than 10 days. For the binding assay the homogenate was thawed at 37° C., centrifuged and the pellet was washed three times as above in a Tris-HCl 5 mM, pH 7.4 cold buffer. The final pellet was resuspended in the same buffer and used at a final concentration of 200 μg of protein/ml.
3H [R-(R*,S*)]-α-(4-Hydroxy-phenyl)-β-methyl-4-(phenyl-methyl)-1-piperidine propanol binding experiments were performed using a Tris-HCl 50 mM, pH 7.4 buffer. For displacement experiments 5 nM of 3H [R-(R*,S*)]-α-(4-Hydroxy-phenyl)-β-methyl-4-(phenyl-methyl)-1-piperidine propanol were used and non specific binding was measured using 10 μM of tetrahydroisoquinoline and usually it accounts for 10% of the total. The incubation time was 2 hours at 4° C. and the assay was stopped by filtration on Whatmann GF/B glass fiber filters (Unifilter-96, Packard, Zurich, Switzerland). The filters were washed 5 times with cold buffer. The radioactivity on the filter was counted on a Packard Top-count microplate scintillation counter after addition of […] of microscint 40 (Canberra Packard S. A., Zurich, Switzerland).
The effects of compounds were measured using a minimum of 8 concentrations and repeated at least once. The pooled normalized values were analyzed using a non-linear regression calculation program which provide IC50 with their relative upper and lower 95% confidence limits (RS1, BBN, USA).

α1-adrenergic receptors = assay: 3H-Prazosin binding; design: species or system rat (Male Fullinsdorf albino rats); conditions: rat brain membranes, 0.2 nM 3H-Prazosine, 30 minutes at room temperature, pH 7.4; read-out: Inhibition of [3H]-Prazosin binding IC50
Description: ^b Inhibition of binding indicates affinity for α1
as §1, with “a Plytron” for “a Polytron”, “at -80°” for “at -100°”, “Tris-HCl 15mM,” for “Tris-HCl 5 mM,”, “[…]” for “200 μg”
3H-Prazosin binding experiments were performed using a Tris-HCl 50 mM, pH 7.4 buffer. For displacement experiments 0.2 nM of 3H-Prazosine were used and non specific binding was measured using […] of Chlorpromazine. The incubation time was 30 minutes at room temperature and the assay was stopped by filtration on Whatman GF/B glass fiber filters (Ubrifilter-96, Canberra Packard S. A., Zurich, Switzerland). The filters were washed 5 times with cold buffer. The radioactivity on the filter was counted on a Packard Top-count microplate scintillation counter after addition of […] of microscint 40 (Canberra Packard S. A., Zurich, Switzerland). The effects of compounds were measured using a minimum of 8 concentrations and repeated at least once. The pooled normalized values were analyzed using a non-linear regression calculation program which provide IC50 with their relative upper and lower 95% confidence limits (RS1, BBN, USA).

NMDA NR1 + NR2B = target: T2, NMDA NR1 + NR2B (Homo sapiens, UniProt Q05586+Q13224); assay: Block of recombinant NMDA receptor subtype NR1 + NR2B expressed in Xenopus oocytes; type: cell-based
T2 construct: expressed in transfected cells; host or cells: Xenopus oocytes
Excerpt: (§2) ^c Indicates the ability to block selectively recombinant NMDA receptor
(§3) subtypes expressed in Xenopus oocytes.

NMDA NR1 + NR2A = target: T3, NMDA NR1 + NR2A (Homo sapiens, UniProt Q05586+Q12879); assay: Block of recombinant NMDA receptor subtype NR1 + NR2A expressed in Xenopus oocytes; type: cell-based
T3 construct: expressed in transfected cells; host or cells: Xenopus oocytes
T3 sequence (Q12879 23-1464, other chains not shown): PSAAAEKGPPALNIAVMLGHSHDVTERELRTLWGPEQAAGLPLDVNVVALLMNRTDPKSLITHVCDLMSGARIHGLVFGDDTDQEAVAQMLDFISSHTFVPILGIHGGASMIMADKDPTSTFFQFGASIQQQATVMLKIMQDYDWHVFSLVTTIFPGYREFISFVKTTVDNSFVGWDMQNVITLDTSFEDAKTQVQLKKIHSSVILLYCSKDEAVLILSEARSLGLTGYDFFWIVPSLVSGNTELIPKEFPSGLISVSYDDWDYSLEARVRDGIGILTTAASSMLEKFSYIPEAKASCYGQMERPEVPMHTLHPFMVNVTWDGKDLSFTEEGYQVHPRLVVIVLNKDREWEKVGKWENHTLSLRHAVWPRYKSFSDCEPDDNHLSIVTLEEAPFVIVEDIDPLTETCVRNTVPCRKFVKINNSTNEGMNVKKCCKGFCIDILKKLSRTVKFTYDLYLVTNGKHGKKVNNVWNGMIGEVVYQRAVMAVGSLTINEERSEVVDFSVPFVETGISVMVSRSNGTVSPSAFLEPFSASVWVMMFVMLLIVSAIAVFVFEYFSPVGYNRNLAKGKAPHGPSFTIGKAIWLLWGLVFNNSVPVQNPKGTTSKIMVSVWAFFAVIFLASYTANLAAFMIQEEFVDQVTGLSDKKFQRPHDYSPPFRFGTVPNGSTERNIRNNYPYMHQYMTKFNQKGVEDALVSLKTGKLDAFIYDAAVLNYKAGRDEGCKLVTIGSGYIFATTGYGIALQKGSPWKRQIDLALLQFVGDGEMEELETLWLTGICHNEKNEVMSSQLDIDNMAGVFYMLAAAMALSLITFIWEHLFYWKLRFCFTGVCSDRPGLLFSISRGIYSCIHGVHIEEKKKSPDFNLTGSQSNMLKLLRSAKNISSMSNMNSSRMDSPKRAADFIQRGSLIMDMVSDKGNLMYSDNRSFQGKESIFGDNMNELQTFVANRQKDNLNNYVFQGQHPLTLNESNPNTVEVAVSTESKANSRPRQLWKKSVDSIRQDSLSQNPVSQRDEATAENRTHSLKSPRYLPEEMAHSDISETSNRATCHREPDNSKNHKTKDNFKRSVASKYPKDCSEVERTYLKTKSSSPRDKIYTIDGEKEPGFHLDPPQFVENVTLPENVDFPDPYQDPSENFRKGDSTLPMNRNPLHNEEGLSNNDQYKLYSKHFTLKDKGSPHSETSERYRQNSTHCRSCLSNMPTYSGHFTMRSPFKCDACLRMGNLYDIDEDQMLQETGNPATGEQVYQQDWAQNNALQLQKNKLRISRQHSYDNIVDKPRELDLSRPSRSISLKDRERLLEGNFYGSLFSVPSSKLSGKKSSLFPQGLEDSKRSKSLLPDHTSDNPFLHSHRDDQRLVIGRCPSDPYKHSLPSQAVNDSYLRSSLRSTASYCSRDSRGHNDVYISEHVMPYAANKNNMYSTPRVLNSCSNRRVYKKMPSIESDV
Excerpt: as §2, §3

[2] = test system: i.c.v. NMDA-induced convulsions in mice; assay: Block of i.c.v. NMDA-induced convulsions in mice; type: in vivo; conditions: Mus musculus, iv
Excerpt: |^d Indicates potency in mg/kg i.v. to block i.c.v. NMDA-induced | convulsions in mice.

[3] = target: T4, recombinant human ERG potassium channels (Homo sapiens, UniProt Q12809); assay: Inhibition of the HERG K+ channel, whole-cell patch-clamp, transfected CHO cells; type: cell-based; conditions: concentrations above 10 μM not tested
T4 construct: expressed in transfected cells; host or cells: CHO cells, stably transfected with pcDNA3-HERG
T4 sequence (Q12809 whole entry): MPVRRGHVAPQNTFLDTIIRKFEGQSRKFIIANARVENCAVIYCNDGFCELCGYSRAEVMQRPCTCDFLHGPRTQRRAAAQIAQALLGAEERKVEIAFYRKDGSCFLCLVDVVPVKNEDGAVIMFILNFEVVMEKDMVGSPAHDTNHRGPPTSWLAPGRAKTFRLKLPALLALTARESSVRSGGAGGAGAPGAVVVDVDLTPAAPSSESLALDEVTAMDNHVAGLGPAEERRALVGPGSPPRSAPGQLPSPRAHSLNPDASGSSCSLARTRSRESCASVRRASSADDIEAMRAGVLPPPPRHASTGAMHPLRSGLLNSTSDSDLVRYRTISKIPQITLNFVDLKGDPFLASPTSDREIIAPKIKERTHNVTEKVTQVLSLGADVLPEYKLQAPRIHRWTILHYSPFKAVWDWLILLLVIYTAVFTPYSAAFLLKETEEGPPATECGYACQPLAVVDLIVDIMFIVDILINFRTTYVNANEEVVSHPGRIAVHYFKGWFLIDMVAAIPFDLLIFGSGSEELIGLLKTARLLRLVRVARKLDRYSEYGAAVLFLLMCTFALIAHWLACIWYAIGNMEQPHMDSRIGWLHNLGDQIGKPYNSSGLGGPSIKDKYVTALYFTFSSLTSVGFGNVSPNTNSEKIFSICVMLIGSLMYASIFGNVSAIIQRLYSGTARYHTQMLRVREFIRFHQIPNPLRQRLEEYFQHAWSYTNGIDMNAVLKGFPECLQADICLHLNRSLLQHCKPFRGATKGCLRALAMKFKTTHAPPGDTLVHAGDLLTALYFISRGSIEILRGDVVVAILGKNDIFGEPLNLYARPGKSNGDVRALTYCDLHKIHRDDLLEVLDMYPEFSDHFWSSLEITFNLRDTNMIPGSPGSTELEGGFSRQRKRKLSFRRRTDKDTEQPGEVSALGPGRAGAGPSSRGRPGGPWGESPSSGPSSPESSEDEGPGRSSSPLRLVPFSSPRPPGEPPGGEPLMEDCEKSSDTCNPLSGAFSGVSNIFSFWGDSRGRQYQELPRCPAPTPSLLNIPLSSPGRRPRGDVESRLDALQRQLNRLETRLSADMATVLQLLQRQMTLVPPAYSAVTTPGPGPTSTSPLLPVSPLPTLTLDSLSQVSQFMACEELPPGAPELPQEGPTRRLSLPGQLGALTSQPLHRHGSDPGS
Excerpt: Method 3 Methods for Studying the Inhibition of the HERG K^+ Channel CHO cells were stably transfected by a pcDNA3-HERG expression vector containing a SV40-neo cassette for selection. Cells were thinly plated into 35 mm dishes and used for the electrophysiological experiment 1/2-3 d later. […] A 10-mM stock solution of the test compound was made from pure DMSO. Test solution were made by at least 1000-fold dilution of the stock solution into the extracellular saline. […] The whole-cell configuration of the patch-clamp technique was used for the experiments. […] The membrane current was recorded for at least 3 min (18 stimuli) before compound application (control), and then for another two 3-min intervals in presence of two different concentrations of the compound. The current amplitudes (Itest) at the end of each compound application interval were divided by the mean current amplitude (Icontrol) during the initial control period to calculate the percentage effect of the compound: effect (%)=(1-Itest /Icontrol)·100. […] If after the first experiment the IC50 turned out to lie outside the range between the two chosen concentrations the concentrations were changed to bracket the IC50 in the following experiments. The compound was tested on at least three cells.

| Compound | IC50 [1] | IC50 (α1-adrenergic receptors) | IC50 (NMDA NR1 + NR2B) | IC50 (NMDA NR1 + NR2A) | ED50 [2] | IC50 [3] |
| --- | --- | --- | --- | --- | --- | --- |
| Cc1ccc(CC2(O)CCN(CCOc3ccc(O)cc3)CC2)cc1 [Compound 9, 1-[2-(4-hydroxy-phenoxy)-ethyl]-4-(4-methyl-benzyl)-piperidin-4-ol, reference compound] | – | 3500 nM | 3 nM | > 100000 nM | 2.3 mg/kg | 690 nM |
| Cc1ccc(OC2CCN(CCS(=O)(=O)c3ccc(O)cc3)CC2)cc1 [Compound 2, 4-[2-(4-p-tolyloxy-piperidin-1-yl)-ethanesulfonyl]-phenol] | 24 nM and 11 to 24 nM | 16000 nM | < 10 nM | > 10000 nM | 0.84 mg/kg | 4700 nM |

Second part, led by results:

| IC50 [1] | IC50 (α1-adrenergic receptors) | IC50 (NMDA NR1 + NR2B) | IC50 (NMDA NR1 + NR2A) | Compound | ED50 [2] | IC50 [3] |
| --- | --- | --- | --- | --- | --- | --- |
| 14 nM and 11 to 24 nM | 55000 nM | 38 nM | > 10000 nM | O=S(=O)(CCN1CC[C@H](Cc2ccccc2)[C@H](O)C1)c1ccc(O)cc1 [Compound 3, (-)(3S,4S)-4-benzyl-1-[2-(4-hydroxy-benzenesulfonyl)-ethyl]-piperidin-3-ol] | 3.8 mg/kg | – |
| 18 nM and 11 to 24 nM | 42000 nM | < 10 nM | > 10000 nM | O=S(=O)(CCN1CCC(Cc2ccccc2)CC1)c1ccc(O)cc1 [Compound 1, 4[-2-(4-benzyl-piperidine-1-yl)-ethanesulfonyl]-phenol] | 1.1 mg/kg | 4000 nM |
| 11 nM and 11 to 24 nM | 88000 nM | 8 nM | > 10000 nM | Cc1ccc(C[C@H]2CCN(CCS(=O)(=O)c3ccc(O)cc3)C[C@H]2O)cc1 (single isomer, unassigned) [Compound 6, (-)(cis)-1-[2-(4-hydroxy-benzenesulfonyl)-ethyl]-4-(4-methyl-benzyl)-piperidin-3-ol] | 2.2 mg/kg | 3700 nM |
